Reference: patent US10709676B2 (GENEHEAL BIOTECHNOLOGY CO., LTD., priority 2016, dated 2020)

Target: PAICS (Homo sapiens, UniProt P22234)
Conditions: can reach; biochemical enzyme activity and cell biology experiments

PAICS, sequence (P22234 whole entry): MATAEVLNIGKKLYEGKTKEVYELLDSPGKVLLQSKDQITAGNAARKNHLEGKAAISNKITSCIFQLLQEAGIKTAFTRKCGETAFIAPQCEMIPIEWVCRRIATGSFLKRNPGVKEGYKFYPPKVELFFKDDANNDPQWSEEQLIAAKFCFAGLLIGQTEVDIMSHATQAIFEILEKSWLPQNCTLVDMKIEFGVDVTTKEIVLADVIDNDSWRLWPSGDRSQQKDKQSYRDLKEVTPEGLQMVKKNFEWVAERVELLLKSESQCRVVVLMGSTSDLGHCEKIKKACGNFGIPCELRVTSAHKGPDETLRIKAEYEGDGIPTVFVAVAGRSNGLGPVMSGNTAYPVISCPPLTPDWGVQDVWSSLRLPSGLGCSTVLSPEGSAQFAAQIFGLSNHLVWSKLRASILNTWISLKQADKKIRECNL

## NCCCNCCCCNCCCN [spermine, Spermine]
  inhibition ratio against SAICAR accumulation: 71.1%
